The values below come from patent US9353072B2, “Antimicrobial substituted thiazoles and methods of use” (Purdue Research Foundation, priority 2012, dated 2016).

In brackets after ≈: the same amount, converted by molar mass. Like-named read-outs stand apart in the source and are kept apart here.

One test has as its system MRSA ATCC 43300. The experiment in a line: MIC/MBC broth microdilution, MRSA ATCC 43300. It is filed as cell-based, Staphylococcus aureus. The method, then:
(§1) Determination of minimum inhibitory concentration (MIC). The MICs of the lead thiazole compound (compound 1a) and nine derivatives tested against all 18 MRSA strains were determined, in triplicate samples, using the broth microdilution method in accordance with the recommendations contained in the CLSI guidelines.
In general terms: Broth dilution looks for growth in wells or tubes with falling amounts of substance.

Test [1] deals with MRSA ATCC 700699 (NRS1, VISA). The experiment in a line: MIC/MBC broth microdilution, NRS1 (ATCC 700699). It is filed as cell-based. The conditions noted are these: Staphylococcus aureus, Table 8, NRS1 (VISA); for MIC: triplicates, 20 hours, read-out: MIC. The protocol: as §1
A further test concerns VISA HIP07256 (NRS19). The test can be described thus: MIC/MBC broth microdilution, NRS19 (VISA HIP07256). In kind it is cell-based. Conditions: Staphylococcus aureus, Table 8, NRS19 (VISA); for MIC: read-out: MIC. The method, then: as §1
In the next test the test system is VISA LIM 3 (NRS37). The experiment in a line: MIC/MBC broth microdilution, NRS37 (VISA LIM 3). In kind it is cell-based. Conditions: Staphylococcus aureus, Table 8, NRS37 (VISA); for MIC: read-out: MIC. The method, then:
as §1

The subject of the next test is NRS107. The experiment in a line: MIC/MBC broth microdilution, NRS107. It is filed as cell-based. Conditions: Staphylococcus aureus; for MIC: Table 8, read-out: MIC. The method, then: as §1
In a further test the test system is NRS119. The experiment in a line: MIC/MBC broth microdilution, NRS119. It is filed as cell-based. The conditions noted are these: Staphylococcus aureus, Table 8, NRS119; for MIC: read-out: MIC. The method, then: as §1
A further test relates to MRSA USA400 (NRS123). The experiment in a line: MIC/MBC broth microdilution, NRS123 (USA400). It is filed as cell-based. Conditions: Staphylococcus aureus, Table 8, NRS123; for MIC: read-out: MIC. The protocol:
as §1

A further test deals with NRS194. The experiment in a line: MIC/MBC broth microdilution, NRS194. In kind it is cell-based. Conditions: Staphylococcus aureus; for MIC: Table 8, read-out: MIC. The method, then:
as §1

Another test concerns MRSA NRS384 (USA300). The experiment in a line: MIC/MBC broth microdilution, NRS384 (USA300). The conditions noted are these: Staphylococcus aureus. It is filed as cell-based. The method, then: as §1
For a further test, the system named is MRSA USA500 (NRS385). The experiment in a line: MIC/MBC broth microdilution, NRS385 (USA500). It is filed as cell-based. Conditions: Staphylococcus aureus, Table 8, NRS385; for MIC: read-out: MIC. The protocol:
as §1

[2] abbreviates: Staphylococcus aureus, Table 4, MRSA ATCC 43300, 64 μM down to 0.5 μM, 37° C., 19 hours, read-out: Minimum Inhibitory Concentration.
Where [3] appears, read: Staphylococcus aureus, Table 6, MRSA ATCC 43300, 128 μM down to 1.0 μM, 20 hours, read-out: MIC.
[4] abbreviates: Staphylococcus aureus, Table 8, ATCC 43300, read-out: MIC.

For `CCCCc1ccc(-c2nc(C)c(-c3nnn[nH]3)s2)cc1` [Compound R2, 2-(4-butylphenyl)-4-methyl-5-(1H-tetrazol-5-yl)thiazole], the MIC in the test on MRSA ATCC 43300 (setting [2]) is above 64 µM.
Turning to `CCCCc1ccc(-c2nc(C)c(/C(C)=N/NC(=N)N/N=C(\C)c3sc(-c4ccc(CCCC)cc4)nc3C)s2)cc1` [Compound M1], in the test on MRSA ATCC 43300 (setting [3]), the MIC is above 128 µM.
Consider `CC(=O)c1ccc(-c2ccc(-c3nc(C)c(C(C)=O)s3)cc2)cc1` [Compound M9, 1-(4′-(5-acetyl-4-methylthiazol-2-yl)-[1,1′-biphenyl]-4-yl)ethanone], for which the MIC (in the test with MRSA ATCC 43300 (setting [3]); in the test with MRSA ATCC 43300 (setting [4]); in test [1]; in the test on VISA HIP07256 (NRS19); in the test with VISA LIM 3 (NRS37); in the test with NRS107) was above 128 µM each time. The MIC in the test with NRS119 is above 128 µM; in the test on MRSA USA400 (NRS123) it was above 128 µM; with NRS194 it was above 128 µM; in the test with MRSA NRS384 (USA300) (Table 8, NRS384, read-out: MIC), above 128 µM; with MRSA USA500 (NRS385), above 128 µM.
Regarding `CC(=O)c1sc(-c2ccc(-c3ccc(-c4nc(C)c(C(C)=O)s4)cc3)cc2)nc1C` [Compound M21, 1,1′-(2,2′-([1,1′-Biphenyl]-4,4′-diyl)bis(4-methylthiazole-5,2-diyl))diethanone], the MIC in the test on MRSA ATCC 43300 (setting [3]) was above 128 µM.
A word on the MBC: it is the smallest concentration meeting the test's criterion for killing. Regarding `CCCCC#Cc1ccc(-c2nc(C)c(/C(C)=N/NC(=N)N)s2)cc1` [Compound R1, (E)-2-(1-(2-(4-(hex-1-yn-1-yl)phenyl)-4-methylthiazol-5-yl)ethylidene)hydrazinecarboximidamide], the MIC with MRSA ATCC 43300 (setting [2]) is 4 µM (≈ 1.41 µg/mL); in the test with MRSA ATCC 43300 (setting [4]) it was 4 µM (≈ 1.41 µg/mL); in [1] it was 2 µM (≈ 0.707 µg/mL); with VISA HIP07256 (NRS19), 4 µM (≈ 1.41 µg/mL); in the test with VISA LIM 3 (NRS37), 4 µM (≈ 1.41 µg/mL); in the test with NRS107, 4 µM (≈ 1.41 µg/mL). Also, the MIC worked out at 4 µM (≈ 1.41 µg/mL) with NRS119; 4 µM (≈ 1.41 µg/mL) in the test with MRSA USA400 (NRS123); 4 µM (≈ 1.41 µg/mL) in the test on NRS194; 4 µM (≈ 1.41 µg/mL) with MRSA NRS384 (USA300) (Table 8, NRS384, read-out: MIC); 4 µM (≈ 1.41 µg/mL) in the test on MRSA USA500 (NRS385). Besides, the MBC turned out to be 4 µM (≈ 1.41 µg/mL) with MRSA ATCC 43300 (Staphylococcus aureus, Table 8, ATCC 43300, read-out: MBC); 2 µM (≈ 0.707 µg/mL) in test [1] (read-out: MBC); 4 µM (≈ 1.41 µg/mL) in the test on VISA HIP07256 (NRS19) (read-out: MBC); 4 µM (≈ 1.41 µg/mL) with VISA LIM 3 (NRS37) (read-out: MBC); 4 µM (≈ 1.41 µg/mL) in the test on NRS107 (Table 8, read-out: MBC); 4 µM (≈ 1.41 µg/mL) with NRS119 (read-out: MBC). Besides, the MBC was found to be 4 µM (≈ 1.41 µg/mL) in the test with MRSA USA400 (NRS123) (read-out: MBC); 4 µM (≈ 1.41 µg/mL) in the test on NRS194 (Table 8, read-out: MBC); 4 µM (≈ 1.41 µg/mL) in the test on MRSA NRS384 (USA300) (Table 8, NRS384, read-out: MBC); 4 µM (≈ 1.41 µg/mL) with MRSA USA500 (NRS385) (read-out: MBC).
Take `C/C(=N/NC(=N)N)c1sc(-c2ccc(-c3ccc(O)cc3)cc2)nc1C` [Compound M5, (Z)-2-(1-(2-(4′-hydroxy-[1,1′-biphenyl]-4-yl)-4-methylthiazol-5-yl)ethylidene)hydrazinecarboximidamide]: the MIC with MRSA ATCC 43300 (setting [3]) is above 128 µM.
The molecule `CCCCCCCC#Cc1ccc(-c2nc(C)c(/C(C)=N\NC(=N)N/N=C(\C)c3sc(-c4ccc(C#CCCCCCCC)cc4)nc3C)s2)cc1` [Compound M18] yielded an MIC against MRSA ATCC 43300 (Staphylococcus aureus, 20 h) above 128 µM.
Turning to `CCCCc1ccc(-c2nc(C)c(C(=O)NC[C@@H](O)CO)s2)cc1` [Compound R8, (R)-2-(4-butylphenyl)-N-(2,3-dihydroxypropyl)-4-methylthiazole-5-carboxamide], the MIC in the test with MRSA NRS384 (USA300) (Table 5, MRSA NRS384 (USA300), 128 μM down to 1.0 μM, 37° C., 19 hours, read-out: Minimum Inhibitory Concentration) is 128 µM (≈ 44.6 µg/mL).
Molecule `COc1cc(OC)cc(-c2ccc(-c3nc(C)c(C(C)=O)s3)cc2)c1` [Compound M19, 1-(2-(3′,5′-dimethoxy-[1,1′-biphenyl]-4-yl)-4-methylthiazol-5-yl)ethanone] came in with an MIC in the test with MRSA ATCC 43300 (Staphylococcus aureus, 20 h) above 128 µM.
For `[H]/N=C(/N)NN=C(C)c1sc(-c2cc[nH]n2)nc1C` [Compound M20], the MIC in the test on MRSA ATCC 43300 (Table 6, MRSA ATCC 43300, 128 μM down to 1.0 μM, 20 hours, read-out: MIC) is 8 µM (≈ 2.11 µg/mL).
For `CCCCc1ccc(-c2nc(C)c(C(=O)NNC(=O)c3sc(-c4ccc(CCCC)cc4)nc3C)s2)cc1` [Compound R3, 2-(4-butylphenyl)-N′-(2-(4-butylphenyl)-4-methylthiazole-5-carbonyl)-4-methylthiazole-5-carbohydrazide], the MIC with MRSA ATCC 43300 (setting [2]) was above 64 µM.
On to `C/C(=N\NC(=N)N/N=C(\C)c1sc(-c2ccc(N)cc2)nc1C)c1sc(-c2ccc(N)cc2)nc1C` [Compound M3], for which the MIC in the test with MRSA ATCC 43300 (setting [3]) was above 128 µM.
The same measure, in the same setting: as for `CC(=O)c1sc(-c2ccc(-c3ccc(O)cc3)cc2)nc1C` [Compound M4, 1-(2-(4′-hydroxy-[1,1′-biphenyl]-4-yl)-4-methylthiazol-5-yl)ethanone], the figure is above 128 µM.
